Legend:
mPTP-active Daoy cell = assay: Inhibitory effect on mPTP-active Daoy cell (Promega CellTiter-Glo, intracellular ATP); type: cell-based, human; settings: Daoy cell transfected with empty virus vector without PPIF shRNA
mPTP-inactive Daoy cell = assay: Inhibitory effect on mPTP-inactive Daoy cell (PPIF shRNA; Promega CellTiter-Glo, intracellular ATP); type: cell-based, human; settings: Daoy cell transfected with virus vector carrying PPIF shRNA
From the text: The activity of mitochondria permeability transition pore (mPTP) was regulated by the PPIF protein. […] PPIF protein activity was restricted by the expression level of PPIF protein in cell.

SMILES	IC50 (mPTP-active Daoy cell; Homo sapiens, Daoy) [nM]	IC50 (mPTP-inactive Daoy cell; Homo sapiens, Daoy) [nM]	IC50 (mPTP-active Daoy cell) [nM]	IC50 (mPTP-inactive Daoy cell) [nM]
COc1ccc2c(c1OCCCCl)C(C1CCC1)N1CCc3cc4c(cc3C1=C2)OCO4 (stereo not drawn) [AB35490]	10600	3760		
COc1ccc2c(c1OCCCCl)C(C1CCCCC1)N1CCc3cc4c(cc3C1=C2)OCO4 (stereo not drawn) [AB35491]	6010	2630		
CCCC1=C2c3cc4c(cc3CCN2C(C(Cl)(Cl)Cl)c2c1ccc(OC)c2OC)OCO4 (stereo not drawn) [AB35492]	3780	1340		
COc1ccc2c(c1OC)C(C)N1CCc3cc4c(cc3C1=C2CCCc1ccccc1)OCO4 (stereo not drawn) [AB35493]	3330	1020		
CCCCOc1c(OC)ccc2c1C(C(Cl)(Cl)Cl)N1CCc3cc4c(cc3C1=C2)OCO4 (stereo not drawn) [AB35494]	1280	360		
COc1ccc2c(c1OCCCCCl)C(C(Cl)(Cl)Cl)N1CCc3cc4c(cc3C1=C2)OCO4 (stereo not drawn) [AB35496]	12400	5280		
CCCCCCCCC1=C2c3cc4c(cc3CCN2C(C(Cl)(Cl)Cl)c2c1ccc(OC)c2OC)OCO4 (stereo not drawn) [AB35497]	3280	1150		
COc1ccc2c(c1OC)C(C)N1CCc3cc4c(cc3C1=C2CCc1ccccc1)OCO4 (stereo not drawn) [AB35498]	6350	3100		
CCOc1c(OC)ccc2c1C(C(Cl)(Cl)Cl)N1CCc3cc4c(cc3C1=C2)OCO4 (stereo not drawn) [AB35499]	6450	3150		
COc1ccc2c(c1OC)C(C1CCCC1)N1CCc3cc4c(cc3C1=C2CCCCCCCl)OCO4 (stereo not drawn) [AB35500]	3460	1710		
COc1ccc2c(c1OC)C(C(Cl)(Cl)Cl)N1CCc3cc4c(cc3C1=C2CCCCCCBr)OCO4 (stereo not drawn) [AB35501]	4980	1910		
CCCCC1=C2c3cc4c(cc3CCN2C(C(Cl)(Cl)Cl)c2c1ccc(OC)c2OC)OCO4 (stereo not drawn) [AB35502]	6140	2970		
CCCC1=C2c3cc4c(cc3CCN2C(C2CCCC2)c2c1ccc(OC)c2OC)OCO4 (stereo not drawn) [AB35504]	10600	4250		
CCCCCOc1c(OC)ccc2c1C(C(Cl)(Cl)Cl)N1CCc3cc4c(cc3C1=C2)OCO4 (stereo not drawn) [AB35505]	1240	420		
CCCOc1c(OC)ccc2c1C(C(Cl)(Cl)Cl)N1CCc3cc4c(cc3C1=C2)OCO4 (stereo not drawn) [AB35506]	3450	1490		
CCCCCCC1=C2c3cc4c(cc3CCN2C(C(Cl)(Cl)Cl)c2c1ccc(OC)c2OC)OCO4 (stereo not drawn) [AB35508]	2250	990		
COc1ccc2c(c1N1CCN(C)CC1)C(C1CCCC1)N1CCc3cc4c(cc3C1=C2)OCO4 (stereo not drawn) [AB35510]			830	290
CCCOc1c(OC)ccc2c1C(C1CCCC1)N1CCc3cc4c(cc3C1=C2)OCO4 (stereo not drawn) [AB35512]	4270	1570		
COc1ccc2c(c1N1CCC(C(F)(F)F)CC1)C(C(Cl)(Cl)Cl)N1CCc3cc4c(cc3C1=C2)OCO4 (stereo not drawn) [AB35514]	3420	1330		
COc1ccc2c(c1N1CCN(C)CC1)C(C(Cl)(Cl)Cl)N1CCc3cc4c(cc3C1=C2)OCO4 (stereo not drawn) [AB35518]	8250	3080		
COc1ccc2c(c1N1CCN(C)CC1)C(C1CCCC1)N1CCc3cc4c(cc3C1=C2)OCO4 (stereo not drawn) [AB35519]			13600	6030
CCC(CC)COc1c(OC)ccc2c1C(C(Cl)(Cl)Cl)N1CCc3cc4c(cc3C1=C2)OCO4 (stereo not drawn) [AB35521]	2400	1030		
CCCCCC1=C2c3cc4c(cc3CCN2C(C2CCCC2)c2c1ccc(OC)c2OC)OCO4 (stereo not drawn) [AB35522]	3950	1340		
COc1ccc2c(c1OC)C(C1CCCC1)N1CCc3cc4c(cc3C1=C2CCCCCCBr)OCO4 (stereo not drawn) [AB35523]	3220	1390		
COc1ccc2c(c1OC)C(C(Cl)(Cl)Cl)N1CCc3cc4c(cc3C1=C2CCCCCCCl)OCO4 (stereo not drawn) [AB35524]	4040	1900		
COc1ccc2c(c1OCCCc1ccccc1)C(C(Cl)(Cl)Cl)N1CCc3cc4c(cc3C1=C2)OCO4 (stereo not drawn) [AB35525]	2480	700		

SMILES	IC50 (mPTP-active Daoy cell; Homo sapiens, Daoy) [nM]	IC50 (mPTP-inactive Daoy cell; Homo sapiens, Daoy) [nM]	IC50 (mPTP-active Daoy cell) [nM]	IC50 (mPTP-inactive Daoy cell) [nM]
COc1ccc2c(c1OCc1ccccc1-c1ccccc1)C(C(Cl)(Cl)Cl)N1CCc3cc4c(cc3C1=C2)OCO4 (stereo not drawn) [AB35531]	3600	1550		
C=CCOc1c(OC)ccc2c1C(C(Cl)(Cl)Cl)N1CCc3cc4c(cc3C1=C2)OCO4 (stereo not drawn) [AB35534]	3920	1280		
COc1ccc2c(c1OCCCCc1ccccc1)C(C(Cl)(Cl)Cl)N1CCc3cc4c(cc3C1=C2)OCO4 (stereo not drawn) [AB35535]	590	180		
CCCOc1c(OC)ccc2c1CN1CCc3cc4c(cc3C1=C2)OCO4 [AB35536]	1300	400		
COc1ccc2c(c1OCCCCl)CN1CCc3cc4c(cc3C1=C2)OCO4 [AB35543]	1220	440		
COc1ccc2c(c1OCCCBr)CN1CCc3cc4c(cc3C1=C2)OCO4 [AB35544]	720	200		
COc1ccc2c(c1N1CCC(C)CC1)CN1CCc3cc4c(cc3C1=C2)OCO4 [AB35545]	530	200		
COc1ccc2c(c1N1CCC(Cl)CC1)CN1CCc3cc4c(cc3C1=C2)OCO4 [AB35550]	6360	2050		
COc1ccc2c(c1OCCCF)CN1CCc3cc4c(cc3C1=C2)OCO4 [AB35590]	4540	1410		
CCOc1c(OC)ccc2c1CN1CCc3cc4c(cc3C1=C2)OCO4 [AB35594]	2660	1100		
COc1ccc2c(c1OCCF)CN1CCc3cc4c(cc3C1=C2)OCO4 [AB35599]	5410	2430		
COc1ccc2c(c1OCCBr)CN1CCc3cc4c(cc3C1=C2)OCO4 [AB36403]	1660	540		
[2H]C1c2c(ccc(OC)c2OC)C=C2c3cc4c(cc3CCN21)OCO4 (stereo not drawn) [AB36415]	2180	1070		
CCCC1c2c(ccc3c2OCO3)C=C2c3cc4c(cc3CCN21)OCO4 (stereo not drawn) [AB36416]	3780	1440		
C1=C2c3cc4c(cc3CCN2C(C2CCCC2)c2c1ccc1c2OCO1)OCO4 (stereo not drawn) [AB36423]	6760	2020		
CCC1=C2c3cc4c(cc3CCN2C(C(Cl)(Cl)Cl)c2c1ccc1c2OCO1)OCO4 (stereo not drawn) [AB36426]	30900	35000		
CCCC1=C2c3cc4c(cc3CCN2C(C(Cl)(Cl)Cl)c2c1ccc1c2OCO1)OCO4 (stereo not drawn) [AB36427]	11900	4300		
C1=C2c3cc4c(cc3CCN2Cc2cc3c(cc21)OCO3)OCO4 [AB36428]	920	400		
CCCC1=C2c3cc4c(cc3CCN2C(C2CCCC2)c2c1ccc1c2OCO1)OCO4 (stereo not drawn) [AB36432]	4320	1880		
CCCCCC1c2c(ccc3c2OCO3)C=C2c3cc4c(cc3CCN21)OCO4 (stereo not drawn) [AB36433]	1920	580		
[2H]C1([2H])c2c(ccc(OC)c2OC)C=C2c3cc4c(cc3CCN21)OCO4 [AB36434]	2420	1130		
[2H]C1c2c(ccc(OC)c2OCCC)C=C2c3cc4c(cc3CCN21)OCO4 (stereo not drawn) [AB36437]	1370	540		
CC1=C2c3cc4c(cc3CCN2C(C(Cl)(Cl)Cl)c2c1ccc1c2OCO1)OCO4 (stereo not drawn) [AB36442]	29900	29200		
COc1ccc2c(c1OC)C(C1CCC1)N1CCc3cc4c(cc3C1=C2)OCO4 (stereo not drawn) [AB36447]	6730	2650		
COc1ccc2c(c1Cl)CN1CCc3cc4c(cc3C1=C2)OCO4 [AB36450]	5120	2230		
